Laboratory results taken from patent publication US20120034193A1, “TREATMENT OF NEUROTROPHIC FACTOR MEDIATED DISORDERS” (priority 2009, published 2012).

Experiments:
[1] = Tissue distribution after a single oral administration, dog; assay type: in vivo
Rat cortical neurones = test: Neuritogenesis in cortical neurones; assay type: cell-based; settings: 24 h; for Neurones displaying neurites (%): control 39.35 ± 2.06
Procedure: Rat cortical neurones were cultured by modification of a previously described method (Singer, et al., Neuroscience Letters, 1996, 212, pp. 13-16). Cells were cultured with sarsasapogenin, smilagenin, vehicle (DMSO 0.25%), GDNF, BDNF or NGF for 24 h. For each group, 15 pictures showing neurones displaying neurites were selected at random in each field, and for each neurone the longest neurite was measured. The neurite number was measured by counting the number of neurones displaying neurites, the number of neurones not displaying neurites and the number of total neurones in each field. Six fields per well were examined.
The results are shown in Table 15 below, expressed as the number of neurones with neurites per field as a percentage of the total number of neurones per field.

C57b1/6 RJ mice = test: Sciatic nerve crush model; assay type: in vivo, Mouse; settings: for Degenerated fibres (% of control): nerve crush alone 109.10 ± 2.65; for Recovery of nerve function as measured by CMAP parameters (amplitude, latency, duration): sarsasapogenin 3, smilagenin 0.3 and 3 mg/kg/day, oral gavage in oil, 6 weeks
Text: The sciatic nerve crush model is a well characterised reversible model for motor neurone disease and post-traumatic nerve injuries (McMahon and Priestley, Current Opinion in Neurobiology, 1995, 5, pp. 616-624). The nerve damage is produced by mechanical pressure using haemostatic forceps, applied twice, 5 mm proximal to the trifurcation of the right sciatic nerve of these mice. […] The loss of nerve function recovers progressively over a 4-5 week period after the mechanical insult.
4-Methylcatechol (10 μg/kg/day, i.p.) was used as a positive control (Kaechi et al., Journal of Phamacology and Experimental Therapeutics, 1995, 272, pp. 1300-1304).
C57b1/6 RJ mice were anaesthetised with ketamine chlorhydrate (60 mg/kg, i.p.). The sciatic nerve was surgically exposed at mid thigh level and crushed at 5 mm proximal to the trifurcation of the sciatic nerve. The nerve was crushed twice for 30 s with a haemostatic forceps with a 90-degree rotation between each crush. […] The loss of nerve function recovered progressively over a 4-5 week period after mechanical insult. Electromyographic recordings were assessed as described above.

[2] = tested on: rat primary cortical neurones; test: Inhibition of induced neurite outgrowth by K252a or PD98059; assay type: cell-based; settings: 30 nM, 24 h
Procedure: (§1) Cortical neurones were cultured as detailed above. Neurones were exposed to vehicle (DMSO, 0.25%) or K252a (100 nM) for 1 h. After 1 h, vehicle, sarsasapogenin, smilagenin (30 nM) or BDNF (1.85 nM) was added to the medium in the maintained presence of K252a. Following 24 h exposure to sarsasapogenin or smilagenin (30 nM), vehicle (DMSO, 0.25%) or BDNF (1.85 nM), the neurones were washed using phosphate-buffered saline (PBS) and fixed in glutaraldehyde (2.5%) in PBS. Photographs of 40-60 neurones expressing neurites were taken with a camera fixed on a microscope (objective ×20, Nikon). The neurite length was measured by an analysis of the photographs.
as §1, with “PD98059 (10 μM)” for “K252a (100 nM)”, “vehicle,” for “vehicle, sarsasapogenin,”, “PD98059.” for “K252a.”, “to” for “to sarsasapogenin or”, “PBS” for “phosphate-buffered saline (PBS)”

[3] = tested on: Rat spinal motor neurones; test: Reversal of glutamate-induced damage in spinal motor neurones; assay type: cell-based
Procedure: The rat spinal motor neurones were prepared as detailed above. On day 10, the medium was removed and the cultures exposed to glutamate (4 μM) for 10 min at 37° C. in 5% CO2/95% air atmosphere in defined medium. After the glutamate exposure, cultures were washed with DMEM at 37° C. then placed in fresh culture medium containing sarsasapogenin, smilagenin, vehicle or BDNF. After 48 h, the extent of motor neurone damage was determined as detailed above. This Example develops the work reported in Example 8 of PCT patent application No. WO-A-03/082893.

[4] = molecular target: Nicotinic Acetylcholine α1, Bungarotoxin (Homo sapiens, UniProt P02708+P07510+Q07001); test: Binding assay; settings: smilagenin 1 μM
Sequence of Nicotinic Acetylcholine α1, Bungarotoxin (P07510 23-517): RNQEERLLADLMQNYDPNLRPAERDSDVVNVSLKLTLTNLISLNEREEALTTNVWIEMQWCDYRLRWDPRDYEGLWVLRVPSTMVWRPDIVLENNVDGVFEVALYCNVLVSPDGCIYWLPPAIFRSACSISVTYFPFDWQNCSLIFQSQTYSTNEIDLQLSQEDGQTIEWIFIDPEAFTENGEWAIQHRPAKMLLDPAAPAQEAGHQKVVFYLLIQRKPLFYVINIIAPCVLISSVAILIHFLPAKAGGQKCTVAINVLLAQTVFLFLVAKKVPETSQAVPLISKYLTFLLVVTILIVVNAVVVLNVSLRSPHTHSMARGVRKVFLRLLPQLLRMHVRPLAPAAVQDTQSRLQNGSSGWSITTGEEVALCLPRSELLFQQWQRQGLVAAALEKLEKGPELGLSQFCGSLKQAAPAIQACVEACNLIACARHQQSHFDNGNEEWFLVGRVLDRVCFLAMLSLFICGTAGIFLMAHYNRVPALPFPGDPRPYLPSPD
Sequence of Nicotinic Acetylcholine α1, Bungarotoxin (P11230 24-501, further chain): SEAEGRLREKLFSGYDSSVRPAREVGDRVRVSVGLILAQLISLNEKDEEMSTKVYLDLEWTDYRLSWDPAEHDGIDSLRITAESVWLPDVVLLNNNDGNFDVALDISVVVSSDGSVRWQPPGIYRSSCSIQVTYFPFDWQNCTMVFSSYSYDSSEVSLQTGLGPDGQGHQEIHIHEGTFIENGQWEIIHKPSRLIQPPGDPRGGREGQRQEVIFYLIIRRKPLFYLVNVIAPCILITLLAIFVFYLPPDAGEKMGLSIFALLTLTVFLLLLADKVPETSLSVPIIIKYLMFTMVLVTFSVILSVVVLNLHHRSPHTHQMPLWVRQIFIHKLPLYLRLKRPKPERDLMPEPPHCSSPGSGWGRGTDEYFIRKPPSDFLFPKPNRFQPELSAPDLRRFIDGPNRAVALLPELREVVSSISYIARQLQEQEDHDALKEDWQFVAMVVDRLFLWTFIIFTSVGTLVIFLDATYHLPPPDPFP
Sequence of Nicotinic Acetylcholine α1, Bungarotoxin (Q07001 22-517): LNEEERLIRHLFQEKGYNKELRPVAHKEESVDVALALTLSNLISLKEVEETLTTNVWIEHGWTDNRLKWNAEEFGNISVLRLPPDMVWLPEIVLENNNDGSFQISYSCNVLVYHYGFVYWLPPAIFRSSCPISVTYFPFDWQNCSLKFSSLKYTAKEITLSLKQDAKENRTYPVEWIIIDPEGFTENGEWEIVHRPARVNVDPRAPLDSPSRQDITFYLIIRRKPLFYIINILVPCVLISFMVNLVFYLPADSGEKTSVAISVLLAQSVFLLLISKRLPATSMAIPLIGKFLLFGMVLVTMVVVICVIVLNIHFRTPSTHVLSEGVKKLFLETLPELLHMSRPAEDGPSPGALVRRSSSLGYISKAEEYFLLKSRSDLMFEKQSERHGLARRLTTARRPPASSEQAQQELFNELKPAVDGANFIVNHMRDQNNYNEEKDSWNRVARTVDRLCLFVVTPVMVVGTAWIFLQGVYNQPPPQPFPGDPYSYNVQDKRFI
Sequence of Nicotinic Acetylcholine α1, Bungarotoxin (P02708 21-457): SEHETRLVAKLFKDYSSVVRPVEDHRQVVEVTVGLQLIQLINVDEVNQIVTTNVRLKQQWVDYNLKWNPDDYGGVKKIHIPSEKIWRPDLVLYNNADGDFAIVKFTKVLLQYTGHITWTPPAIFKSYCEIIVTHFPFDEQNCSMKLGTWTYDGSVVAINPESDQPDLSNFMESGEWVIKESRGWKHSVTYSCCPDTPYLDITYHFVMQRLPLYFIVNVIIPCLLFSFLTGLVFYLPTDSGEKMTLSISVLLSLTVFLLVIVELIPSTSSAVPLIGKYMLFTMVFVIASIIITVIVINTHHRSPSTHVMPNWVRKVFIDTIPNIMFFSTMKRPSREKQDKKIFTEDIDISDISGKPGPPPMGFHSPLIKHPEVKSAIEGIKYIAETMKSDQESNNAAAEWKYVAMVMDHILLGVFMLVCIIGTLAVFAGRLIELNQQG

[5] = tested on: Free Radical Scavenger, SOD Mimetic; test: Functional assay; assay type: biochemical, Bovine; settings: smilagenin 1 μM
Procedure: The enzyme activity modulation was investigated using the following method: Sarsasapogenin was incubated with each enzyme plus a specific substrate for each enzyme. After the incubation period the reaction was stopped and the reduction of the specific substrate or the increase in a specific product in the absence and presence of sarsasapogenin was measured and the percent inhibition of the reaction in the presence of sarsasapogenin was calculated. The amount of enzyme used, the incubation conditions, the substrate used and the method of quantification varied depending on each specific assay.
Using the same methods as described above, the binding of smilagenin (1 μM) to the receptors listed in Table 2 below, and the effect of smilagenin on the activity of the enzymes listed in Table 2 below, were investigated.

[6] = Dog F, 25 mg/kg single oral, 4 h
[7] = Dog F, 25 mg/kg single oral, 24 h
[8] = Dog F, 25 mg/kg single oral, 168 h
[9] = Dog M, 25 mg/kg single oral, 4 h
[10] = Dog M, 25 mg/kg single oral, 24 h
[11] = Dog M, 25 mg/kg single oral, 168 h
[12] = 0.03 nM for 48 h after glutamate 4 μM 10 min
[13] = 3 nM for 48 h after glutamate 4 μM 10 min
[14] = 300 nM for 48 h after glutamate 4 μM 10 min
[15] = Dog M, 10 mg/kg single oral, 2 h
[16] = Dog M, 10 mg/kg single oral, 24 h
[17] = Dog M, 10 mg/kg single oral, 168 h

C[C@H]1CC[C@@]2(OC1)O[C@H]1C[C@H]3[C@@H]4CC[C@@H]5C[C@@H](O)CC[C@]5(C)[C@H]4CC[C@]3(C)[C@H]1[C@@H]2C [Sarsasapogenin, sarsasapogenin]
Concentration of compound, Brain [1, 6]: 0.128 ng equivalents/g tissue | Concentration of compound, Plasma [1, 6]: 0.184 ng equivalents/g tissue | Concentration of compound, Spinal cord [1, 6]: 0.515 ng equivalents/g tissue | Concentration of compound, Brain [1, 7]: 8.64 ng equivalents/g tissue | Concentration of compound, Plasma [1, 7]: 1.79 ng equivalents/g tissue | Concentration of compound, Spinal cord [1, 7]: 5.79 ng equivalents/g tissue | Concentration of compound, Brain [1, 8]: 0.535 ng equivalents/g tissue | Concentration of compound, Plasma [1, 8]: 0.115 ng equivalents/g tissue | Concentration of compound, Spinal cord [1, 8]: 1.43 ng equivalents/g tissue | Concentration of compound, Brain [1, 9]: 1.37 ng equivalents/g tissue | Concentration of compound, Plasma [1, 9]: 0.641 ng equivalents/g tissue | Concentration of compound, Spinal cord [1, 9]: 1.13 ng equivalents/g tissue | Concentration of compound, Brain [1, 10]: 2.33 ng equivalents/g tissue | Concentration of compound, Plasma [1, 10]: 0.196 ng equivalents/g tissue | Concentration of compound, Spinal cord [1, 10]: 1.82 ng equivalents/g tissue | Concentration of compound, Brain [1, 11]: 0.605 ng equivalents/g tissue | Concentration of compound, Plasma [1, 11]: 0.309 ng equivalents/g tissue | Concentration of compound, Spinal cord [1, 11]: 1.49 ng equivalents/g tissue | Neurite length (% of control) (Rat cortical neurones; 3 nM): 168.29 ± 6.12 % of control | Neurones displaying neurites (%) (Rat cortical neurones; 3 nM): 52.40 ± 2.63 % | Neurite length (% of control) (Rat cortical neurones; 30 nM): 156.74 ± 4.06 % of control | Neurones displaying neurites (%) (Rat cortical neurones; 30 nM): 57.32 ± 2.54 % | Degenerated fibres (% of control) (C57b1/6 RJ mice; 3 mg/kg/day oral): 33.50 ± 12.60 % of control | Recovery of nerve function as measured by CMAP parameters (amplitude, latency, duration) (C57b1/6 RJ mice): significantly improved the recovery of nerve function | Neurite length (% of control) ([2]; no inhibitor): 126.74 ± 5.76^++++ % of control | Neurite length (% of control) ([2]; with K252a (100 nM)): 93.12 ± 2.88 % of control | Neuronal survival (% of control) [3, 12]: 101.09 ± 4.12 % of control | Neuronal survival (% of control) [3, 13]: 108.10 ± 3.56 % of control | Neuronal survival (% of control) [3, 14]: 120.43 ± 7.46 % of control

C[C@@H]1CC[C@@]2(OC1)O[C@H]1C[C@H]3[C@@H]4CC[C@@H]5C[C@@H](O)CC[C@]5(C)[C@H]4CC[C@]3(C)[C@H]1[C@@H]2C [Smilagenin, smilagenin]
Concentration of compound, Brain [1, 15]: 3670 ng equivalents/g tissue | Concentration of compound, Plasma [1, 15]: 3878 ng equivalents/g tissue | Concentration of compound, Spinal cord [1, 15]: 1805 ng equivalents/g tissue | Concentration of compound, Brain [1, 16]: 5813 ng equivalents/g tissue | Concentration of compound, Plasma [1, 16]: 1508 ng equivalents/g tissue | Concentration of compound, Spinal cord [1, 16]: 3647 ng equivalents/g tissue | Concentration of compound, Brain [1, 17]: 1727 ng equivalents/g tissue | Concentration of compound, Plasma [1, 17]: 1129 ng equivalents/g tissue | Concentration of compound, Spinal cord [1, 17]: 3165 ng equivalents/g tissue | Neurite length (% of control) (Rat cortical neurones; 3 nM): 159.03 ± 4.91 % of control | Neurones displaying neurites (%) (Rat cortical neurones; 3 nM): 53.84 ± 2.93 % | Neurite length (% of control) (Rat cortical neurones; 30 nM): 176.71 ± 6.34 % of control | Neurones displaying neurites (%) (Rat cortical neurones; 30 nM): 53.46 ± 2.13 % | Degenerated fibres (% of control) (C57b1/6 RJ mice; 0.3 mg/kg/day oral): 16.70 ± 4.23 % of control | Degenerated fibres (% of control) (C57b1/6 RJ mice; 3 mg/kg/day oral): −8.10 ± 6.03 % of control | Recovery of nerve function as measured by CMAP parameters (amplitude, latency, duration) (C57b1/6 RJ mice): significantly improved the recovery of nerve function | Effect (%) [4]: NS (NS = No significant response. Significance was taken as ≧30% stimulation or inhibition) | Effect (%) [5]: NS (NS = No significant response. Significance was taken as ≧30% stimulation or inhibition) | Neurite length (% of control) ([2]; no inhibitor): 146.78 ± 6.75^++++ % of control | Neurite length (% of control) ([2]; with K252a (100 nM)): 94.36 ± 3.96 % of control | Neurite length (% of control) ([2]; with PD98059 (10 μM)): 120.27 ± 5.80 % of control | Neuronal survival (% of control) [3, 12]: 90.98 ± 2.46 % of control | Neuronal survival (% of control) [3, 13]: 101.53 ± 3.18 % of control | Neuronal survival (% of control) [3, 14]: 106.61 ± 4.24 % of control
